# Measured values published in article PMC10779433, “Bidirectional Allosteric Coupling between PIP2 Binding and the Pore of the Oncochannel TRPV6” (International Journal of Molecular Sciences, 2024).
# Residues, ends and D or L forms follow the SMILES beside them. *: point of attachment. Palmitoyl = CCCCCCCCCCCCCCCC(=O)*
# Columns and labels:
# Assay type in all cases: cell-based, human
# TRPV6 D580K = experiment: NFAT screen, TRPV6 D580K; conditions: HEK293 cells; 5 μM cis-22a, 2 h, vs DMSO
# Protocol: (§1) N-terminally TagRFP-labeled human TRPV6 (725 aa) was kindly provided by R. Bhardwaj and M. Hediger (University of Bern, Bern, Switzerland). This variant is translated from the first ATG codon and thus deviates from the non-ATG-initiated protein which is expressed in vivo (accession number NM_018646.6) by lacking 40 amino acids of the very N-terminus. For N-terminal labeling with EYFP, TRPV6 was cloned into pEYFP-C1 (Clontech) via EcoRI and SacII restriction sites. […]
# (§2) After incubation, cover slips were carefully rinsed with phenol red-free DMEM supplemented with the compound and dosage corresponding to the previous incubation, which was then also present during imaging. […] Subcellular NFAT localization of TRPV6 expressing cells was again monitored on an Axiovert 135 inverted microscope (Zeiss, Oberkochen, Germany), as described in more detail before. […] Images were analyzed using Matlab2018a, differentiating between three cell populations based on the ratio of CFP emission intensity originating from the nucleus and the cytosol, similar to Schober et al. (2019).
# TRPV6 H582A = experiment: NFAT screen, TRPV6 H582A; conditions: HEK293 cells; 5 μM cis-22a, 2 h, vs DMSO; analysable cells hardly present
# Protocol: as §1, §2
# TRPV6 I575A = experiment: Whole-cell patch clamp, TRPV6 I575A; conditions: HEK293 cells, 10 μM pal-PIP2 peptide, Figure 5C (substitution reduces the inhibition)
# Text: (§3) N-terminally TagRFP-labeled human TRPV6 (725 aa) was kindly provided by R. Bhardwaj and M. Hediger (University of Bern, Bern, Switzerland). This variant is translated from the first ATG codon and thus deviates from the non-ATG-initiated protein which is expressed in vivo (accession number NM_018646.6) by lacking 40 amino acids of the very N-terminus. For N-terminal labeling with EYFP, TRPV6 was cloned into pEYFP-C1 (Clontech) via EcoRI and SacII restriction sites. Mutations (F468A, R470A, F472A, K484A/Q, G488R, R492A/Q, I575A, G579A, D580A/K, H582A, W583A/F, H587A, R589A, W593A, R632A/Q, R470A, W583F) were introduced using the QuickChange XL site-directed mutagenesis kit (Stratagene, San Diego, CA, USA) and Pfu DNA Polymerase (Promega, Madison, WI, USA). pTagRFP-hTRPV6 I575A was kindly provided by the lab of M. Hediger (University of Bern, Bern, Switzerland). Forward and reverse primers for site-directed mutagenesis were synthesized by Eurofins genomics GmbH (Wien, Vienna, Austria). Intactness of the constructs in terms of sequence was confirmed by sequencing (Microsynth Austria GmbH, Wien, Vienna, Austria; Eurofins genomics GmbH, Wien, Vienna, Austria). […]
# (§4) Electrophysiological experiments were performed at 20 °C to 24 °C in whole-cell recording configurations of the patch clamp technique. […] The liquid junction potential was determined as 12 mV; the voltages were not adjusted. […]
# TRPV6 R470A = experiment: Whole-cell patch clamp, TRPV6 R470A; conditions: HEK293 cells; 10 μM pal-PIP2 peptide; p < 0.05; Figure 4D
# Text: as §3, §4
Structure (SMILES),change of nuclear NFAT localization (TRPV6 D580K),change of nuclear NFAT localization (TRPV6 H582A),inhibitory effect of pal-PIP2 peptide vs WT (TRPV6 I575A),sensitivity to peptide-based PIP2 sequestration vs WT (TRPV6 R470A)
Cc1cccc(C2CCC(N3CCN(c4cccnc4)CC3)CC2)c1.O=C(O)C(F)(F)F (stereo not drawn) [cis-22a],not significantly changed,nuclear NFAT localization was higher for cis-22a-treated cells compared to the DMSO control,–,–
CCCCCCCCCCCCCCCC(=O)N[C@@H](Cc1c[nH]cn1)C(=O)N[C@@H](CCCNC(=N)N)C(=O)N[C@@H](CCC(N)=O)C(=O)N[C@@H](CCCCN)C(=O)N[C@@H](Cc1c[nH]cn1)C(=O)N[C@@H](Cc1ccccc1)C(=O)N[C@@H](CCC(=O)O)C(=O)N[C@@H](CCCCN)C(=O)N[C@@H](CCCNC(=N)N)C(=O)N[C@@H](CCCNC(=N)N)C(N)=O [pal-PIP2 peptide] (Palmitoyl-HRQKHFEKRR-NH2),–,–,interfered with the inhibitory effect of the pal-PIP2 peptide,significantly reduced sensitivity
